Reference: patent US20260132125A1, “PESTICIDALLY ACTIVE FUSED BICYCLIC HETEROAROMATIC COMPOUNDS” (priority 2022, published 2026)

Key:
Assay type in all cases: in vivo
[1] = system: Chilo suppressalis; experiment: Example B1: activity against Chilo suppressalis (striped rice stemborer), artificial diet; details: 144 h, 200 ppm, L2 larvae, 6 days after infestation, read-out: control (at least one of mortality, anti-feedant effect, growth inhibition)
Procedure, shortened: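 First, artificial diet was treated with aqueous solutions prepared from 10'000 ppm DMSO stocks; second, after drying, L2 larvae (6-8/well) were added; third, effects were assessed at 6 days against untreated controls, counting control when any of three categories was higher.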

[2] = system: Plutella xylostella; experiment: Example B5: activity against Plutella xylostella (diamond back moth), artificial diet, eggs; details: 192 h, 8 days after infestation, read-out: effect in at least one of the two categories (mortality or growth inhibition)
Procedure, shortened: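 Scoring at 8 days post-infestation compared mortality and growth inhibition with untreated controls, on diet treated at 200 ppm with water-diluted DMSO stock solutions. Diamondback moth eggs were placed on the dried diet in 24-well plates.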

[3] = system: Spodoptera littoralis; experiment: Example B6: activity against Spodoptera littoralis (Egyptian cotton leaf worm), cotton leaf discs; details: foliar, 72 h, 200 ppm, L1 larvae, 3 days after infestation, read-out: control (at least one of mortality, anti-feedant effect, growth inhibition)
Procedure, shortened: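 Cotton leaf discs on agar were sprayed with aqueous test solutions made from 10′000 ppm DMSO stocks, dried, then infested with five L1 larvae. Mortality, anti-feeding effect and growth inhibition were scored against untreated discs 3 days after infestation; control means any category exceeds untreated.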

[4] = system: Euschistus heros; experiment: Example B3: activity against Euschistus heros (neotropical brown stink bug), soybean leaves; details: 120 h, N2 nymphs, 5 days after infestation, read-out: effect in at least one of the two categories (mortality or growth inhibition)
Procedure: Soybean leaves on agar in 24-well microtiter plates were sprayed with aqueous test solutions prepared from 10′000 ppm DMSO stock solutions. After drying the leaves were infested with N2 nymphs. The samples were assessed for mortality and growth inhibition in comparison to untreated samples 5 days after infestation. The following compounds gave an effect of at least 80% in at least one of the two categories (mortality or growth inhibition) at an application rate of 200 ppm: […]

[5] = system: Diabrotica balteata; experiment: Example B2: activity against Diabrotica balteata (corn root worm), maize sprouts; details: 96 h, L2 larvae, 4 days after infestation, read-out: effect in at least one of the two categories (mortality or growth inhibition)
Procedure, shortened: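 At 200 ppm, test solutions diluted in water from 10′000 ppm DMSO stocks were spray-applied to maize sprouts set on agar. Once dry, each well received 6–10 second-instar larvae. Four days later, mortality and growth inhibition were compared with untreated controls.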

[6] = system: Myzus persicae; experiment: Example B4: activity against Myzus persicae (green peach aphid), intrinsic activity; details: 120 h, test rate 12 ppm, 5 days after infestation
Procedure: Test compounds prepared from 10′000 ppm DMSO stock solutions were applied by pipette into 24-well microtiter plates and mixed with sucrose solution. The plates were closed with a stretched Parafilm. A plastic stencil with 24 holes was placed onto the plate and infested pea seedlings were placed directly on the Parafilm. The infested plate was closed with a gel blotting paper and another plastic stencil and then turned upside down. The samples were assessed for mortality 5 days after infestation.

[7] = system: Pseudoplusia includens; experiment: Example B9: Pseudoplusia includens (soybean looper), larvicide, feeding/contact, soybean plants; details: Chrysodeixis includens, 120 h; 50 ppm; L2 larvae; 5 days after infestation; read-out: effect in at least one of the two categories (mortality or growth inhibition)
Procedure: Soybean plants were treated in a spray chamber, cut off and placed into petri dishes containing wet filter paper. 1d after application leaves were infested with 5 L2 larvae and covered with a fabric filter and plastic lids. 5 days after infestation the samples were assessed for mortality and growth inhibition. The following compounds gave an effect of at least 80% in at least one of the two categories (mortality or growth inhibition) at an application rate of 50 ppm: […]

CNC(=O)c1cnc(-n2ncnc2[C@H](C)Nc2ncnc3c(C(F)(F)F)cc(Cl)cc23)s1 [Compound P7, 2-[5-[(1S)-1-[[6-chloro-8-(trifluoromethyl)quinazolin-4-yl]amino]ethyl]-1,2,4-triazol-1-yl]-N-methyl-thiazole-5-carboxamide]
≥ 80%: percent control (mortality, anti-feedant effect or growth inhibition) at 200 ppm [1] | percent effect (mortality or growth inhibition) at 200 ppm [2] | percent control (mortality, anti-feedant effect or growth inhibition) at 200 ppm [3] | percent effect (mortality or growth inhibition) at 200 ppm [4] | percent effect (mortality or growth inhibition) at 200 ppm [5]

CNC(=O)c1cc(-n2ncnc2[C@H](C)Nc2ncnc3c(Cl)cc(C(F)(F)F)cc23)ncn1 [Compound P16, 6-[5-[(1S)-1-[[8-chloro-6-(trifluoromethyl)quinazolin-4-yl]amino]ethyl]-1,2,4-triazol-1-yl]-N-methyl-pyrimidine-4-carboxamide]
≥ 80%: percent control (mortality, anti-feedant effect or growth inhibition) at 200 ppm [1] | mortality at 12 ppm [6] | percent effect (mortality or growth inhibition) at 200 ppm [2] | percent control (mortality, anti-feedant effect or growth inhibition) at 200 ppm [3] | percent effect (mortality or growth inhibition) at 50 ppm [7] | percent effect (mortality or growth inhibition) at 200 ppm [5]

CNC(=O)c1cc(-n2ncnc2[C@H](C)N(C)c2ncnc3c(I)cc(Cl)cc23)ncn1 [Compound P33, 6-[5-[(1S)-1-[(6-chloro-8-iodo-quinazolin-4-yl)-methyl-amino]ethyl]-1,2,4-triazol-1-yl]-N-methyl-pyrimidine-4-carboxamide]
≥ 80%: percent control (mortality, anti-feedant effect or growth inhibition) at 200 ppm [1] | mortality at 12 ppm [6] | percent effect (mortality or growth inhibition) at 200 ppm [2] | percent control (mortality, anti-feedant effect or growth inhibition) at 200 ppm [3] | percent effect (mortality or growth inhibition) at 50 ppm [7] | percent effect (mortality or growth inhibition) at 200 ppm [5]

C[C@H](Nc1ncnc2c(Cl)cc(C(F)(F)F)cc12)c1ncnn1-c1ncc(C(N)=O)s1 [Compound P35, 2-[5-[(1S)-1-[[8-chloro-6-(trifluoromethyl)quinazolin-4-yl]amino]ethyl]-1,2,4-triazol-1-yl]thiazole-5-carboxamide]
≥ 80%: percent control (mortality, anti-feedant effect or growth inhibition) at 200 ppm [1] | mortality at 12 ppm [6] | percent effect (mortality or growth inhibition) at 200 ppm [2] | percent control (mortality, anti-feedant effect or growth inhibition) at 200 ppm [3] | percent effect (mortality or growth inhibition) at 200 ppm [4] | percent effect (mortality or growth inhibition) at 200 ppm [5]

C[C@H](Nc1ncnc2c(C(F)(F)F)cc(Cl)cc12)c1ncnn1-c1cc(C(=O)N(C)CC#N)ncn1 [Compound P62, 6-[5-[(1S)-1-[[6-chloro-8-(trifluoromethyl)quinazolin-4-yl]amino]ethyl]-1,2,4-triazol-1-yl]-N-(cyanomethyl)-N-methyl-pyrimidine-4-carboxamide]
≥ 80%: percent control (mortality, anti-feedant effect or growth inhibition) at 200 ppm [1] | mortality at 12 ppm [6] | percent effect (mortality or growth inhibition) at 200 ppm [2] | percent control (mortality, anti-feedant effect or growth inhibition) at 200 ppm [3] | percent effect (mortality or growth inhibition) at 50 ppm [7] | percent effect (mortality or growth inhibition) at 200 ppm [5]

C[C@H](Nc1ncnc2c(C(F)(F)F)cc(Cl)cc12)c1ncnn1-c1ncc(C(N)=O)cn1 [Compound P68, 2-[5-[(1S)-1-[[6-chloro-8-(trifluoromethyl)quinazolin-4-yl]amino]ethyl]-1,2,4-triazol-1-yl]pyrimidine-5-carboxamide]
≥ 80%: percent effect (mortality or growth inhibition) at 200 ppm [4]

C[C@H](Nc1ncnc2c(Br)cc(Br)cc12)c1ncnn1-c1cnc(C(N)=O)cn1 [Compound P74, 5-[5-[(1S)-1-[(6,8-dibromoquinazolin-4-yl)amino]ethyl]-1,2,4-triazol-1-yl]pyrazine-2-carboxamide]
≥ 80%: percent effect (mortality or growth inhibition) at 200 ppm [2] | percent control (mortality, anti-feedant effect or growth inhibition) at 200 ppm [3] | percent effect (mortality or growth inhibition) at 200 ppm [4]
